Source: patent publication US20130281410A1, “METHODS FOR THE TREATMENT OF PSYCHIATRIC DISORDERS” (University of Utah Research Foundation, priority 2010, published 2013)

Columns and labels:
[1] = system: adolescent MDD patients living at high altitude; assay: Clinical study of creatine monohydrate in adolescent MDD patients living at high altitude (CDRS); assay type: in vivo, human; settings: adolescents with MDD, Salt Lake City (4,300 feet), 5 g/day creatine monohydrate as a powder, 1 to 10 weeks
Description: Clinical assessment was performed using the Children's Depression Rating Scale (CDRS).
A clinical study was performed to determine the effect of creatine on adolescent MDD patients living at high altitude (Salt Lake City; elevation of 4,300 feet). In this study, three adolescents diagnosed as having MDD and living at high altitude were administered 5 g/day of creatine monohydrate (as a powder). The subjects in the study were monitored using the Children's Depression Rating Scale (CDRS). The study was performed for 1 to 10 weeks.

[2] = system: male MDD subjects; assay: Clinical study of creatine monohydrate in male MDD subjects (HAMD, BDI); assay type: in vivo, human; settings: 5 g/day creatine monohydrate as a powder vs placebo, 0 to 8 weeks, FIGS. 1A and 1B
Description: FIGS. 1A and 1B show clinical assessment data of male subjects having MDD upon treatment with placebo (grey lines) or creatine monohydrate (5 g/day, black lines) for 0 to 8 weeks. Clinical assessment was performed using the Hamilton Depressing Rating Scale (FIG. 1A) or the Beck Depression Inventory scale (FIG. 1B).
A clinical study was performed to study the effect of creatine administration on male MDD subjects. A total of 6 male subjects (mean age of 42.7 years; age range 27 to 63) were enrolled in this study. Among the subjects, 5 subjects (mean age of 38.6 years; age range of 27 to 59) underwent at least one follow-up assessment. Three subjects received 5 g/day creatine monohydrate (as a powder), and two subjects received a placebo. The MDD symptoms of the subjects were assessed using the Hamilton Depression Rating Scale (HAMD) (FIG. 1A) or the Beck Depression Inventory (BDI) (FIG. 1B). The baseline HAMD total score for intention-to-treat sample was 30.4 (standard deviation of 5.1) and the baseline BDI total score was 31 (standard deviation of 11.3).

## CN(CC(=O)O)C(=N)N.O [creatine, creatine monohydrate]
[1]
  symptoms of MDD in patients living at high altitude: reduces the symptoms of MDD in patients living at high altitude
[1]; after failing an SSRI trial, FIG. 2
  Children's Depression Rating Scale (CDRS) score: reduction in CDRS score
[2]
  symptoms of MDD, Hamilton Depression Rating Scale (HAMD) and Beck Depression Inventory (BDI): reduces the symptoms of MDD in male subjects
